For the experiment, the target named is T1, human ROCKα/ROCKII mix (Homo sapiens, UniProt O75116).
T1 construct: purchased Upstate Biotechnology 14-451
T1 sequence (O75116 whole entry): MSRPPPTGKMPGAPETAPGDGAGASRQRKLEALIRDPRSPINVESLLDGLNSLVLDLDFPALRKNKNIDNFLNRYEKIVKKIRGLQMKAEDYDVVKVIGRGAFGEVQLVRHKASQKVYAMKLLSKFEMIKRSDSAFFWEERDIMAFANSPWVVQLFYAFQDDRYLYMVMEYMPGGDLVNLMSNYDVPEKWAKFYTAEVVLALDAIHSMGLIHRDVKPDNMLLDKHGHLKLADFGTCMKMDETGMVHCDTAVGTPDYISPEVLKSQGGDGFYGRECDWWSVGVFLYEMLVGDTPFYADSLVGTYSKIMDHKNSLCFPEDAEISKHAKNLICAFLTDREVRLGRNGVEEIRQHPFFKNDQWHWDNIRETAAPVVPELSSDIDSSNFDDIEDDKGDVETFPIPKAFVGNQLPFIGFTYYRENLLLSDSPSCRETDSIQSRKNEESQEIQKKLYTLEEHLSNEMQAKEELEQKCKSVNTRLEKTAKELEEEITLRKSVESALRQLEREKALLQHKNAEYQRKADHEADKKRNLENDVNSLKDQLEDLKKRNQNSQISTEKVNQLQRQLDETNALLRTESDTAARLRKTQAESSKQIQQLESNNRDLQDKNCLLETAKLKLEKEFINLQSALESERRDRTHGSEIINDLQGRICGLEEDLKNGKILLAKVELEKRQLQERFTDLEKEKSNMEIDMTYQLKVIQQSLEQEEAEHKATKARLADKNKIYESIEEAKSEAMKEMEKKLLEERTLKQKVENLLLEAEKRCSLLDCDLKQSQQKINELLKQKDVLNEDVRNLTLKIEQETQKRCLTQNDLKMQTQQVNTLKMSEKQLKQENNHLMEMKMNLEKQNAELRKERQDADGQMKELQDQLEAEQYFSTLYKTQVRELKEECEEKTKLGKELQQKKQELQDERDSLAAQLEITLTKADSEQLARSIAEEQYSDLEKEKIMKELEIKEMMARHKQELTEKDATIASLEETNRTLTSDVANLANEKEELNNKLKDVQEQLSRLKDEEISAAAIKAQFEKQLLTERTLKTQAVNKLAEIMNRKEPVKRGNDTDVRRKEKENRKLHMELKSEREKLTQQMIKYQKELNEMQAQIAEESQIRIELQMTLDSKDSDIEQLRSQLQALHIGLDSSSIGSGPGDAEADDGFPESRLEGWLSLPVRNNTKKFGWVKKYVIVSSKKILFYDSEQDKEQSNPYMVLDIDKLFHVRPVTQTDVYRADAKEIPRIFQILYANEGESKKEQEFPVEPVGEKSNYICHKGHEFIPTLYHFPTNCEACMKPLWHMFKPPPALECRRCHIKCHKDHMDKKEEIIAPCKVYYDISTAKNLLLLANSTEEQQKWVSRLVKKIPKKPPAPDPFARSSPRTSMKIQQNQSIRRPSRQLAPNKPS
Kind of experiment: ROCK inhibition, fluorescence polarization (FP) assay with ROCK IMAP Kit. It counts as biochemical. The conditions noted are these: Table 1, compounds of Formula IV20. As for the experimental part:
The compounds were tested for inhibition of human ROCKα/ROCKII mix.
The inhibition assays were performed with a fluorescence polarization (FP) assay using the commercially available ROCK IMAP Kit from Molecular Devices (Product ID. No. R8093), essentially in accordance with the protocol supplied by the manufacturer. […] The enzyme mix ROCKα/ROCKII was obtained from Upstate Biotechnology (Product ID No 14-451).
In summary, all compounds were screened in the wells of a 384 well plate for enzymatic inhibition with concentrations varying from 100 μM to 0.3 nM using a stepwise 3 (or 2)-fold dilution.
To perform the assay, 1 μl of a solution of the compound to be tested in DMSO (at each concentration) was added to 2 μl of a solution of the enzyme in 10 mM Tris-HCl, 10 mM MgCl2, 0.1% BSA, 0.05% NaN3, pH 7.2. The final concentration of the enzyme was 2.6 nM.
After incubating for 30 minutes at RT, 2 μl of a mixture of ATP and the protein substrate in 10 mM Tris-HCl, 10 mM MgCl2, 0.1% BSA, 0.05% NaN3, pH 7.2 was added. The final concentration of the ATP was 10 μM and final concentration of protein substrate was 0.2 μM.
After incubating for 60 minutes at RT, 12 μl of the IMAP Binding Solution (mix of the IMAP Binding Buffer A (1×) and the IMAP Binding Reagent (from the ROCK IMAP kit)) was added.
The mixture thus obtained (total volume: 17 μl) was incubated for 60 minutes at RT, upon which the fluorescence polarization was measured using an automated plate reader (Perkin Elmer, Model Envision 2100-0010 HTS) with FP filters: excitation filter FITC FP 480 and emission filters FITC FP P-pol 535 and FITC FP S-pol 535 (Perkin-Elmer). The results were fitted to a curve using the XL-Fit algorithm and IC50 values were calculated for each fitted curve, again using the XL-Fit algorithm.
Background: In fluorescence polarisation assays a small probe gives low polarisation when free and higher when bound to something large.
The term IC50 denotes the concentration needed to halve the response being measured. On to “4-[1-amino-2-(1-methyl-piperidin-1-yl)-2-oxo-ethyl]-N-pyridin-4-yl-benzamide [Compound 26]”, for which the half-maximal inhibitory concentration (IC50) was < 0.5 µM.

On to `NC(C(=O)NCc1ccccc1)c1ccc(C(=O)Nc2ccncc2)cc1` (centres unmarked) [Compound 1], for which the 50% inhibitory concentration (IC50) is < 0.5 µM. For `CC(NC(=O)C(N)c1ccc(C(=O)Nc2ccncc2)cc1)c1ccccc1` (centres unmarked) [Compound 2, 4-[amino-(1-phenyl-ethylcarbamoyl)-methyl]-N-pyridin-4-yl-benzamide], the IC50 is < 0.5 µM. Next, `CN(Cc1ccccc1)C(=O)C(N)c1ccc(C(=O)Nc2ccncc2)cc1` (centres unmarked) [Compound 3, 4-[amino-(benzyl-methyl-carbamoyl)-methyl]-N-pyridin-4-yl-benzamide]: < 0.5 µM; `CCC(NC(=O)C(N)c1ccc(C(=O)Nc2ccncc2)cc1)c1ccccc1` (centres unmarked) [Compound 4, 4-[amino-(1-phenyl-propylcarbamoyl)-methyl]-N-pyridin-4-yl-benzamide]: < 0.5 µM; `CC[C@H](NC(=O)C(N)c1ccc(C(=O)Nc2ccncc2)cc1)c1ccccc1` (stereo partly drawn) [Compound 5, 4-[amino-(1-(S)-phenyl-propylcarbamoyl)-methyl]-N-pyridin-4-yl-benzamide]: 0.5 to 5 µM.

Turning to `NC(C(=O)NCc1ccccc1Cl)c1ccc(C(=O)Nc2ccncc2)cc1` (centres unmarked) [Compound 6, 4-[amino-(2-chloro-benzylcarbamoyl)-methyl]-N-pyridin-4-yl-benzamide], the half-maximal inhibitory concentration (IC50) was < 0.5 µM. Next, `NC(C(=O)NCc1cccc(Cl)c1)c1ccc(C(=O)Nc2ccncc2)cc1` (centres unmarked) [Compound 7, 4-[amino-(3-chloro-benzylcarbamoyl)-methyl]-N-pyridin-4-yl-benzamide]: < 0.5 µM; `COc1ccc(CNC(=O)C(N)c2ccc(C(=O)Nc3ccncc3)cc2)cc1` (centres unmarked) [Compound 8, 4-[amino-(4-methoxy-benzylcarbamoyl)-methyl]-N-pyridin-4-yl-benzamide]: < 0.5 µM. In the case of `COc1ccccc1CNC(=O)C(N)c1ccc(C(=O)Nc2ccncc2)cc1` (centres unmarked) [Compound 9, 4-(amino-(2-methoxy-benzylcarbamoyl)-methyl]-N-pyridin-4-yl-benzamide], the IC50 is < 0.5 µM.

In turn, `NC(C(=O)NCc1ccccn1)c1ccc(C(=O)Nc2ccncc2)cc1` (centres unmarked) [Compound 10, 4-{amino-[(pyridin-2-ylmethyl)-carbamoyl]-methyl}-N-pyridin-4-yl-benzamide] yielded an IC50 of 0.5 to 5 µM. The same measure for `NC(C(=O)NCc1ccncc1)c1ccc(C(=O)Nc2ccncc2)cc1` (centres unmarked) [Compound 11, 4-{amino-[(pyridin-4-ylmethyl)-carbamoyl]-methyl}-N-pyridin-4-yl-benzamide]: 0.5 to 5 µM; for `NC(C(=O)NCc1ccco1)c1ccc(C(=O)Nc2ccncc2)cc1` (centres unmarked) [Compound 12, 4-{amino-[(furan-2-ylmethyl)-carbamoyl]-methyl}-N-pyridin-4-yl-benzamide]: < 0.5 µM. Next, `NC(C(=O)N1CCc2ccccc2C1)c1ccc(C(=O)Nc2ccncc2)cc1` (centres unmarked) [Compound 13, 4-[1-amino-2-(3,4-dihydro-1H-isoquinolin-2-yl)-2-oxo-ethyl]-N-pyridin-4-yl-benzamide]: < 0.5 µM; `NC(C(=O)NCCc1ccccc1)c1ccc(C(=O)Nc2ccncc2)cc1` (centres unmarked) [Compound 14, 4-(amino-phenethylcarbamoyl-methyl)-N-pyridin-4-yl-benzamide]: < 0.5 µM. As for `NC(C(=O)NC1Cc2ccccc2C1)c1ccc(C(=O)Nc2ccncc2)cc1` (centres unmarked) [Compound 15, 4-[amino-(indan-2-ylcarbamoyl)-methyl]-N-pyridin-4-yl-benzamide], the IC50 is < 0.5 µM.

For `NC(C(=O)NCCc1ccc(F)cc1)c1ccc(C(=O)Nc2ccncc2)cc1` (centres unmarked) [Compound 16, 4-{amino-[2-(4-fluoro-phenyl)ethylcarbamoyl]-methyl}-N-pyridin-4-yl-benzamide], the IC50 is < 0.5 µM. The same measure for `NC(C(=O)NCCc1cccs1)c1ccc(C(=O)Nc2ccncc2)cc1` (centres unmarked) [Compound 17, 4-[amino-(2-thiophen-2-yl-ethylcarbamoyl)-methyl]-N-pyridin-4-yl-benzamide]: < 0.5 µM; for `NC(C(=O)NCCn1cccn1)c1ccc(C(=O)Nc2ccncc2)cc1` (centres unmarked) [Compound 18, 4-[amino-(2-pyrazol-1-yl-ethylcarbamoyl)-methyl]-N-pyridin-4-yl-benzamide]: 0.5 to 5 µM; for `NC(C(=O)NCCn1ccnc1)c1ccc(C(=O)Nc2ccncc2)cc1` (centres unmarked) [Compound 19, 4-[amino-(2-imidazol-1-yl-ethylcarbamoyl)-methyl]-N-pyridin-4-yl-benzamide]: 0.5 to 5 µM. Next, `NC(C(=O)Nc1ccccc1)c1ccc(C(=O)Nc2ccncc2)cc1` (centres unmarked) [Compound 20, 4-(amino-phenylcarbamoyl-methyl)-N-pyridin-4-yl-benzamide]: 0.5 to 5 µM; `COc1ccc(NC(=O)C(N)c2ccc(C(=O)Nc3ccncc3)cc2)cc1` (centres unmarked) [Compound 21]: < 0.5 µM; `CCNC(=O)C(N)c1ccc(C(=O)Nc2ccncc2)cc1` (centres unmarked) [Compound 22, 4-(amino-ethylcarbamoyl-methyl)-N-pyridin-4-yl-benzamide]: 0.5 to 5 µM. The same measure for `CC(C)C(C)NC(=O)C(N)c1ccc(C(=O)Nc2ccncc2)cc1` (centres unmarked) [Compound 23, 4-[amino-(1,2-dimethyl-propylcarbamoyl)-methyl]-N-pyridin-4-yl-benzamide]: 0.5 to 5 µM; for `CCC(C)(C)NC(=O)C(N)c1ccc(C(=O)Nc2ccncc2)cc1` (centres unmarked) [Compound 24, 4-[amino-(1,1-dimethyl-propylcarbamoyl)-methyl]-N-pyridin-4-yl-benzamide]: 0.5 to 5 µM; for `NC(C(=O)NCC1CC1)c1ccc(C(=O)Nc2ccncc2)cc1` (centres unmarked) [Compound 25, 4-[amino-(cyclopropylmethyl-carbamoyl)-methyl]-N-pyridin-4-yl-benzamide]: 0.5 to 5 µM. As to `CC1CC(C)CN(C(=O)C(N)c2ccc(C(=O)Nc3ccncc3)cc2)C1` (centres unmarked) [Compound 27, 4-[1-amino-2-(3,5-dimethyl-piperidin-1-yl)-2-oxo-ethyl]-N-pyridin-4-yl-benzamide], the IC50 was < 0.5 µM. Next, `NC(C(=O)N1CCC(c2ccccc2)CC1)c1ccc(C(=O)Nc2ccncc2)cc1` (centres unmarked) [Compound 28, 4-[1-amino-2-(4-phenyl-piperidin-1-yl)-2-oxo-ethyl]-N-pyridin-4-yl-benzamide]: 0.5 to 5 µM; `NC(C(=O)N1CC=C(c2ccc(F)cc2)CC1)c1ccc(C(=O)Nc2ccncc2)cc1` (centres unmarked) [Compound 29, 4-{1-amino-2-[4-(4-fluoro-phenyl)-3,6-dihydro-2H-pyridin-1-yl]-2-oxo-ethyl}-N-pyridin-4-yl-benzamide]: 0.5 to 5 µM. The same measure for `NC(C(=O)N1CCC(c2nc3ccccc3o2)CC1)c1ccc(C(=O)Nc2ccncc2)cc1` (centres unmarked) [Compound 30, 4-[1-amino-2-(4-benzooxazol-2-yl-piperidin-1-yl)-2-oxo-ethyl]-N-pyridin-4-yl-benzamide]: < 0.5 µM; for `NC(C(=O)N1CCC(Cc2ccccc2)CC1)c1ccc(C(=O)Nc2ccncc2)cc1` (stereo not drawn) [Compound 31, 4-[1-amino-2-(4-benzyl-piperidin-l-yl)-2-oxo-ethyl]-N-pyridin-4-yl-benzamide]: 0.5 to 5 µM.

The compound `NC(C(=O)NC1CCCCC1)c1ccc(C(=O)Nc2ccncc2)cc1` (centres unmarked) [Compound 32, 4-(amino-cyclohexylcarbamoyl-methyl)-N-pyridin-4-yl-benzamide] showed an IC50 of 0.5 to 5 µM. Next, `CC1CCC(NC(=O)C(N)c2ccc(C(=O)Nc3ccncc3)cc2)CC1` (centres unmarked) [Compound 33, 4-[amino-(4-methyl-cyclohexylcarbamoyl)-methyl]-N-pyridin-4-yl-benzamide]: 0.5 to 5 µM. On to `NC(C(=O)N1CCOCC1)c1ccc(C(=O)Nc2ccncc2)cc1` (centres unmarked) [Compound 34, 4-(1-amino-2-mopholin-4-yl-2-oxo-ethyl)-N-pyridin-4-yl-benzamide], for which the 50% inhibitory concentration (IC50) is < 0.5 µM. As for `CC1CN(C(=O)C(N)c2ccc(C(=O)Nc3ccncc3)cc2)CC(C)O1` (centres unmarked) [Compound 35, 4-[1-amino-2-(2,6-dimethyl-mopholin-4-yl)-2-oxo-ethyl]-N-pyridin-4-yl-benzamide], the half-maximal inhibitory concentration (IC50) lay within 0.5 to 5 µM. Next, `NC(C(=O)N1CCCC(CO)C1)c1ccc(C(=O)Nc2ccncc2)cc1` (centres unmarked) [Compound 36, 4-[1-amino-2-(3-hydroxymethyl-piperidin-1-yl)-2-oxo-ethyl]-N-pyridin-4-yl-benzamide]: 0.5 to 5 µM. The same measure for `NC(C(=O)NCC1CCCO1)c1ccc(C(=O)Nc2ccncc2)cc1` (centres unmarked) [Compound 37, 4-{amino-[(tetrahydro-furan-2-ylmethyl)-carbamoyl]-methyl}-N-pyridin-4-yl-benzamide]: 0.5 to 5 µM; for `NC(C(=O)N1CCC(O)(c2ccccc2)CC1)c1ccc(C(=O)Nc2ccncc2)cc1` (centres unmarked) [Compound 38, 4-[1-amino-2-(4-hydroxy-4-phenyl-piperidin-1-yl)-2-oxo-ethyl]-N-pyridin-4-yl-benzamide]: 0.5 to 5 µM.

Source of the values: patent US20100190788A1, “Amide derivatives as kinase inhitors” (priority 2005, published 2010).
